In patent US20260250318A1, “COMPOSITIONS AND METHODS FOR CROSSING THE BLOOD BRAIN BARRIER” (VOYAGER THERAPEUTICS, INC., priority 2022, published 2026):

Test system: brains, heart, liver, muscle, and DRG of the NHPs
Test: Maturation of TTM-001 and TTM-002 capsids, NGS enrichment in NHP tissues
Format: in vivo
Excerpt: This Example describes maturation of the AAV9 capsid variants, TTM-001 (SEQ ID NO: 981 (amino acid) and 983 (DNA), comprising SEQ ID NO: 941 (encoded by SEQ ID NO: 942)) and TTM-002 (SEQ ID NO: 982 (amino acid) and 984 (DNA), comprising SEQ ID NO: […] (encoded by SEQ ID NO: 944)) in NHPs to further enhance their transduction and biodistribution in the central nervous system as well as other tissues, and evolve the AAV capsid variants to provide further cross-species compatibility. Two approaches were used to mature the TTM-001 and TTM-002 capsid sequences in order to randomize and mutate within and around the peptide insert comprised within loop IV of the capsid variant. […] In the first maturation approach, sets of three contiguous amino acids were randomized across the mutagenesis region in the TTM-001 and TTM-002 sequences, which spanned from position 450 to position 466, numbered according to SEQ ID NO: 981 and 982. In the second maturation approach, mutagenic primers were used to introduce point mutations at a low frequency, scattered across the mutagenesis region in the TTM-001 and TTM-002 sequences ranging from position 449 to position 466, numbered according to SEQ ID NO: 981 and 982. AAV capsid variants arising from each maturation approach for TTM-001 and TTM-002 were pooled together, for subsequent testing and characterization in NHPs.
The library of pooled matured AAV capsid variants generated using the first maturation approach and the second maturation approach for the TTM-001 and TTM-002 AAV capsid variants were injected into two NHPs. […] Following RNA recovery and RT-PCR amplification, a systematic NGS enrichment analysis was performed to calculate the fold enrichment ratio relative to an AAV9 control, and the peptides comprised within the variants were identified.
Following the RNA recovery and NGS analysis from the second maturation approach, approximately 680,000 capsid variants were identified. The 680,000 matured capsid variants were then filtered based on samples with a raw virus count greater than 10 and a coefficient of variance (CV) of less than 1, which was calculated for each peptide across the brain samples taken from the two NHPs. […] Using this filtering criteria, this led to approximately 64,000 matured capsid variants.

[1] = NHP DRG, NGS, relative to AAV9 control
[2] = NHP brain, NGS, relative to AAV9 control
[3] = NHP heart, NGS, relative to AAV9 control
[4] = NHP liver DNA, NGS, relative to AAV9 control
[5] = NHP liver RNA, NGS, TTM-001 and TTM-002 matured AAV capsid variants, relative to AAV9 control
[6] = NHP muscle, NGS, relative to AAV9 control
[7] = NGS fold-enrichment, DRG, NHP, relative to AAV9
[8] = NGS fold-enrichment, brain, NHP, relative to AAV9
[9] = NGS fold-enrichment, heart, NHP, relative to AAV9
[10] = NGS fold-enrichment, liver DNA, NHP, relative to AAV9
[11] = NGS fold-enrichment, liver RNA, NHP, relative to AAV9
[12] = NGS fold-enrichment, muscle, NHP, relative to AAV9

Sequence | Fold Enrichment relative to AAV9, DRG (NHP) [1] | Fold Enrichment relative to AAV9, Brain (NHP) [2] | Fold Enrichment relative to AAV9, Heart (NHP) [3] | Fold Enrichment relative to AAV9, Liver DNA (NHP) [4] | Fold Enrichment relative to AAV9, Liver RNA (NHP) [5] | Fold Enrichment relative to AAV9, Muscle (NHP) [6] | Fold Enrichment relative to AAV9, DRG (NHP) [7] | Fold Enrichment relative to AAV9, Brain (NHP) [8] | Fold Enrichment relative to AAV9, Heart (NHP) [9] | Fold Enrichment relative to AAV9, Liver DNA (NHP) [10] | Fold Enrichment relative to AAV9, Liver RNA (NHP) [11] | Fold Enrichment relative to AAV9, Muscle (NHP) [12]
KTINGSGSPHCRVQNQQT | 0.000 fold | 0.000 fold | 0.000 fold | 1.203 fold | 31.043 fold | 0.000 fold | – | – | – | – | – | –
KTINGSGSPHFPFQNQQT | – | – | – | – | – | – | 0.000 fold | 0.000 fold | 0.000 fold | 3.715 fold | 10.322 fold | 0.000 fold
KTINGSGSPHFPWQNQQT | 0.000 fold | 0.000 fold | 0.000 fold | 1.731 fold | 53.587 fold | 0.000 fold | – | – | – | – | – | –
KTINGSGSPHFYRQNQQT | 0.000 fold | 0.000 fold | 0.000 fold | 9.342 fold | 31.724 fold | 0.000 fold | – | – | – | – | – | –
KTINGSGSPHGRYQNQQT | – | – | – | – | – | – | 0.000 fold | 0.000 fold | 0.000 fold | 0.778 fold | 10.028 fold | 0.000 fold
KTINGSGSPHIVWQNQQT | 0.000 fold | 0.000 fold | 0.000 fold | 6.056 fold | 58.021 fold | 0.000 fold | – | – | – | – | – | –
KTINGSGSPHKSGQNPQT | – | – | – | – | – | – | 0.000 fold | 0.000 fold | 0.000 fold | 11.790 fold | 11.014 fold | 0.000 fold
KTINGSGSPHLCTQNQQT | 0.000 fold | 0.000 fold | 0.000 fold | 2.489 fold | 11.176 fold | 0.000 fold | – | – | – | – | – | –
KTINGSGSPHLCVQNQQT | 0.000 fold | 0.000 fold | 0.000 fold | 1.428 fold | 19.030 fold | 0.000 fold | – | – | – | – | – | –
KTINGSGSPHLPTQNQQT | 0.000 fold | 0.000 fold | 0.000 fold | 3.127 fold | 20.704 fold | 0.000 fold | – | – | – | – | – | –
KTINGSGSPHLRWQNQQT | 0.000 fold | 0.000 fold | 0.000 fold | 9.649 fold | 21.014 fold | 0.000 fold | – | – | – | – | – | –
KTINGSGSPHLVYQNQQT | 0.000 fold | 0.000 fold | 0.000 fold | 1.045 fold | 14.196 fold | 0.000 fold | – | – | – | – | – | –
KTINGSGSPHMAFQNQQT | 0.000 fold | 0.000 fold | 0.000 fold | 0.542 fold | 17.644 fold | 0.000 fold | – | – | – | – | – | –
KTINGSGSPHPFVQNQQT | 0.000 fold | 0.000 fold | 0.000 fold | 1.286 fold | 12.091 fold | 0.000 fold | – | – | – | – | – | –
KTINGSGSPHPKRQNQQT | 0.000 fold | 0.000 fold | 0.000 fold | 2.355 fold | 23.055 fold | 0.000 fold | – | – | – | – | – | –
KTINGSGSPHPRKQNQQT | 0.000 fold | 0.000 fold | 0.000 fold | 3.248 fold | 12.249 fold | 0.000 fold | – | – | – | – | – | –
KTINGSGSPHPSCQNQQT | 0.000 fold | 0.000 fold | 0.000 fold | 2.790 fold | 27.796 fold | 0.000 fold | – | – | – | – | – | –
KTINGSGSPHQGCQNQQT | 0.000 fold | 0.000 fold | 0.000 fold | 1.037 fold | 17.676 fold | 0.000 fold | – | – | – | – | – | –
KTINGSGSPHRCCQNQQT | 0.000 fold | 0.000 fold | 0.000 fold | 2.213 fold | 19.084 fold | 0.000 fold | – | – | – | – | – | –
KTINGSGSPHRIKQNQQT | 0.000 fold | 0.000 fold | 0.000 fold | 3.064 fold | 21.720 fold | 0.000 fold | – | – | – | – | – | –
KTINGSGSPHRPWQNQQT | 0.000 fold | 0.000 fold | 0.000 fold | 4.936 fold | 16.869 fold | 0.000 fold | – | – | – | – | – | –
KTINGSGSPHRWLQNQQT | 0.000 fold | 0.000 fold | 0.000 fold | 6.882 fold | 28.147 fold | 0.000 fold | – | – | – | – | – | –
